These results are taken from ChEMBL document CHEMBL4346676, “Base promoted synthesis of novel indole-dithiocarbamate compounds as potential anti-inflammatory therapeutic agents for treatment of acute lung injury” (Eur J Med Chem, 2019).

Data set [1] has as its system Peritoneal macrophage. Briefly: Cytotoxicity against C57BL/6J mouse Primary peritoneal macrophages assessed as cell viability at 1 uM measured after 24 hrs by MTT assay. In kind it is cell-based.
Data set [2] relates to Peritoneal macrophage. Briefly: Antiinflammatory activity in C57BL/6J mouse Primary peritoneal macrophages assessed as suppression of LPS-stimulated TNF-alpha expression at 1 uM preincubated for 30 mins followed by LPS stimulation measured after 24 hrs by ELISA. In kind it is functional, cell-based.
The test system of data set [3] is Peritoneal macrophage. Briefly: Antiinflammatory activity in C57BL/6J mouse Primary peritoneal macrophages assessed as suppression of LPS-stimulated IL-6 expression at 1 uM preincubated for 30 mins followed by LPS stimulation measured after 24 hrs by ELISA. In kind it is functional, cell-based.
Data set [4] relates to Peritoneal macrophage. Briefly: Antiinflammatory activity in C57BL/6J mouse Primary peritoneal macrophages assessed as inhibition of LPS-stimulated TNF-alpha expression preincubated for 30 mins followed by LPS stimulation measured after 24 hrs by ELISA. In kind it is functional, cell-based.
Data set [5] has as its system Peritoneal macrophage. Briefly: Antiinflammatory activity in C57BL/6J mouse Primary peritoneal macrophages assessed as inhibition of LPS-stimulated IL-6 expression preincubated for 30 mins followed by LPS stimulation measured after 24 hrs by ELISA. In kind it is functional, cell-based.
The subject of data set [6] is Mus musculus. Briefly: Antiinflammatory activity in LPS-induced C57BL/6 mouse model of acute lung injury assessed as reduction in lung wet/dry ratio at 2.5 to 5 mg/kg, po pretreated for 3 days followed by LPS challenge measured after 6 hrs. In kind it is functional, organism-based.
In data set [7] the test system is Mus musculus. Briefly: Antiinflammatory activity in LPS-induced C57BL/6 mouse model of acute lung injury assessed as reduction in total protein levels in BALF at 2.5 to 5 mg/kg, po pretreated for 3 days followed by LPS challenge measured after 6 hrs. In kind it is functional, organism-based.
Data set [8] deals with Mus musculus. Briefly: Antiinflammatory activity in LPS-induced C57BL/6 mouse model of acute lung injury assessed as inhibition of inflammatory cell infiltration at 2.5 to 5 mg/kg, po pretreated for 3 days followed by LPS challenge measured after 6 hrs by hematoxylin and eosin staining based microscopic analysis. In kind it is functional, organism-based.
Data set [9] concerns Mus musculus. Briefly: Antiinflammatory activity in LPS-induced C57BL/6 mouse model of acute lung injury assessed as inhibition of interstitial edema at 2.5 to 5 mg/kg, po pretreated for 3 days followed by LPS challenge measured after 6 hrs by hematoxylin and eosin staining based microscopic analysis. In kind it is functional, organism-based.
Data set [10] relates to Mus musculus. Briefly: Antiinflammatory activity in LPS-induced C57BL/6 mouse model of acute lung injury assessed as inhibition of interalveolar septal thickening at 2.5 to 5 mg/kg, po pretreated for 3 days followed by LPS challenge measured after 6 hrs by hematoxylin and eosin staining based microscopic analysis. In kind it is functional, organism-based.
Data set [11] concerns Mus musculus. Briefly: Antiinflammatory activity in LPS-induced C57BL/6 mouse model of acute lung injury assessed as inhibition of destruction of alveolar structure at 2.5 to 5 mg/kg, po pretreated for 3 days followed by LPS challenge measured after 6 hrs by hematoxylin and eosin staining based microscopic analysis. In kind it is functional, organism-based.
For data set [12], the system named is Mus musculus. Briefly: Antiinflammatory activity in LPS-induced C57BL/6 mouse model of acute lung injury assessed as inhibition of destruction of alveolar hemorrhage at 2.5 to 5 mg/kg, po pretreated for 3 days followed by LPS challenge measured after 6 hrs by hematoxylin and eosin staining based microscopic analysis. In kind it is functional, organism-based.

The test system of data set [13] is Mus musculus. Briefly: Antiinflammatory activity in LPS-induced C57BL/6 mouse model of acute lung injury assessed as suppression of macrophage infiltration at 2.5 to 5 mg/kg, po pretreated for 3 days followed by LPS challenge measured after 6 hrs by F4/80/hematoxylin staining based microscopic analysis. In kind it is functional, organism-based.
The subject of data set [14] is Mus musculus. Briefly: Antiinflammatory activity in LPS-induced C57BL/6 mouse model of acute lung injury assessed as reduction in neutrophil count in BALF at 2.5 to 5 mg/kg, po pretreated for 3 days followed by LPS challenge measured after 6 hrs. In kind it is functional, organism-based.
The subject of data set [15] is Mus musculus. Briefly: Antiinflammatory activity in LPS-induced C57BL/6 mouse model of acute lung injury assessed as reduction in IL-6 level in BALF at 2.5 to 5 mg/kg, po pretreated for 3 days followed by LPS challenge measured after 6 hrs. In kind it is functional, organism-based.
Data set [16] has as its system Mus musculus. Briefly: Antiinflammatory activity in LPS-induced C57BL/6 mouse model of acute lung injury assessed as reduction in IL-6 level in serum at 2.5 to 5 mg/kg, po pretreated for 3 days followed by LPS challenge measured after 6 hrs. In kind it is functional, organism-based.
Data set [17] relates to Mus musculus. Briefly: Antiinflammatory activity in LPS-induced C57BL/6 mouse model of acute lung injury assessed as reduction in TNF-alpha level in BALF at 2.5 to 5 mg/kg, po pretreated for 3 days followed by LPS challenge measured after 6 hrs. In kind it is functional, organism-based.
Data set [18] concerns Mus musculus. Briefly: Antiinflammatory activity in LPS-induced C57BL/6 mouse model of acute lung injury assessed as reduction in TNF-alpha level in serum at 2.5 to 5 mg/kg, po pretreated for 3 days followed by LPS challenge measured after 6 hrs. In kind it is functional, organism-based.
Data set [19] has as its system Mus musculus. Briefly: Antiinflammatory activity in LPS-induced C57BL/6 mouse model of acute lung injury assessed as reduction in total protein level in BALF at 2.5 to 5 mg/kg, po pretreated for 3 days followed by LPS challenge measured after 6 hrs. In kind it is functional, organism-based.
Data set [20] has as its system Mus musculus. Briefly: Antiinflammatory activity in LPS-induced C57BL/6 mouse model of acute lung injury assessed as reduction in ICAM1 mRNA expression at 2.5 to 5 mg/kg, po pretreated for 3 days followed by LPS challenge measured after 6 hrs by SYBR green dye based RT-qPCR analysis. In kind it is functional, organism-based.
In data set [21] the test system is Mus musculus. Briefly: Antiinflammatory activity in LPS-induced C57BL/6 mouse model of acute lung injury assessed as reduction in VCAM1 mRNA expression at 2.5 to 5 mg/kg, po pretreated for 3 days followed by LPS challenge measured after 6 hrs by SYBR green dye based RT-qPCR analysis. In kind it is functional, organism-based.
Data set [22] deals with Mus musculus. Briefly: Antiinflammatory activity in LPS-induced C57BL/6 mouse model of acute lung injury assessed as reduction in IL-1beta mRNA expression at 2.5 to 5 mg/kg, po pretreated for 3 days followed by LPS challenge measured after 6 hrs by SYBR green dye based RT-qPCR analysis. In kind it is functional, organism-based.
Data set [23] has as its system Mus musculus. Briefly: Antiinflammatory activity in LPS-induced C57BL/6 mouse model of acute lung injury assessed as reduction in TNF-alpha mRNA expression at 2.5 to 5 mg/kg, po pretreated for 3 days followed by LPS challenge measured after 6 hrs by SYBR green dye based RT-qPCR analysis. In kind it is functional, organism-based.
Data set [24] has as its system Mus musculus. Briefly: Antiinflammatory activity in LPS-induced C57BL/6 mouse model of acute lung injury assessed as reduction in IL-6 mRNA expression at 2.5 to 5 mg/kg, po pretreated for 3 days followed by LPS challenge measured after 6 hrs by SYBR green dye based RT-qPCR. In kind it is functional, organism-based.
For data set [25], the system named is Mus musculus. Briefly: Antiinflammatory activity in po dosed C57BL/6 mouse model of acute lung injury assessed as reduction in LPS-stimulated ICAM1 mRNA expression pretreated for 3 days followed by LPS challenge measured after 6 hrs by SYBR green dye based RT-qPCR analysis. In kind it is functional, organism-based.
For data set [26], the system named is Mus musculus. Briefly: Antiinflammatory activity in po dosed C57BL/6 mouse model of acute lung injury assessed as reduction in LPS-stimulated VCAM1 mRNA expression pretreated for 3 days followed by LPS challenge measured after 6 hrs by SYBR green dye based RT-qPCR analysis. In kind it is functional, organism-based.
The subject of data set [27] is Mus musculus. Briefly: Antiinflammatory activity in po dosed C57BL/6 mouse model of acute lung injury assessed as reduction in LPS-stimulated IL-1beta mRNA expression pretreated for 3 days followed by LPS challenge measured after 6 hrs by SYBR green dye based RT-qPCR. In kind it is functional, organism-based.
The subject of data set [28] is Mus musculus. Briefly: Antiinflammatory activity in po dosed C57BL/6 mouse model of acute lung injury assessed as reduction in LPS-stimulated TNF-alpha mRNA expression pretreated for 3 days followed by LPS challenge measured after 6 hrs by SYBR green dye based RT-qPCR. In kind it is functional, organism-based.
Data set [29] concerns Mus musculus. Briefly: Antiinflammatory activity in po dosed C57BL/6 mouse model of acute lung injury assessed as reduction in LPS-stimulated IL-6 mRNA expression pretreated for 3 days followed by LPS challenge measured after 6 hrs by SYBR green dye based RT-qPCR. In kind it is functional, organism-based.

Structures are written as SMILES. Activity calls are given as the source filed them. The calls are words filed in the database; no cut-off is given here.

For the compound `CN(C)C(=S)Sn1ccc2ccc(N)cc21`, in data set [1], the Activity result is “Non-Toxic”.
With `S=C(Sn1ccc2ccccc21)N1CCCCCC1`, the inhibition result in data set [2] and in data set [3] was “Active” in each case. Moreover, the Activity entry in data set [1] is listed as “Non-Toxic”. For the same compound, the results for the half-maximal inhibitory concentration (IC50) in data set [4] and in data set [5] were 114 nM and 87.6 nM, respectively. Besides, the inhibition result in [4] and in [5] was “Dose-dependent effect” throughout.
With `Cc1cc2ccccc2n1SC(=S)N(C)C`, the Activity entry in [1] is given as “Non-Toxic”.
Take `S=C(Sn1ccc2ccccc21)N1CCCC1`: the Activity entry in [1] is “Non-Toxic”.
The same measure, in the same setting: the value for `COC(=O)c1ccc2ccn(SC(=S)N(C)C)c2c1` was “Non-Toxic”.
In the case of `S=C(Sn1ccc2ccccc21)N1CCSCC1`, the inhibition result in [2] and in [3] was “Active” throughout. In addition, the Activity entry in data set [1] is “Non-Toxic”. The half-maximal inhibitory concentration (IC50) in [4] worked out at 14.1 nM; in data set [5] it was 87.4 nM. Moreover, the inhibition entry in data set [4] and in data set [5] was “Dose-dependent effect” each time.
For `CN1CCN(C(=S)Sn2ccc3ccccc32)CC1`, the Activity result in data set [1] is “Non-Toxic”.
As to `Cc1cn(SC(=S)N(C)C)c2ccccc12`, the inhibition entry in data set [2], in data set [3], in data set [20], in data set [21], in [22] and in data set [23] was “Active” each time. For the same compound, in [24], the inhibition result is “Active”. Besides, the Activity entry in data set [1] is given as “Non-Toxic”. Further, the half-maximal inhibitory concentration (IC50) in [4] came out at 28.1 nM; in [5], 14.6 nM. Also, the inhibition result in [4], in data set [5], in data set [25], in data set [26], in data set [27] and in [28] was “Dose-dependent effect” in each case. Further, the inhibition entry in data set [29] is “Dose-dependent effect”. Also, the outcome in data set [6], in data set [7], in [8], in data set [9], in data set [10] and in data set [11] was Active. Further, the outcome in data set [12], in data set [13], in [14], in data set [15], in data set [16] and in data set [17] was Active. In addition, the outcome in data set [18] and in data set [19] was Active.
Consider `CCOC(=O)C1CCCN(C(=S)Sn2ccc3ccccc32)C1` (configuration not stated), for which the Activity entry in data set [1] is reported as “Non-Toxic”.
With `COc1cccc2c1ccn2SC(=S)N(C)C`, the inhibition result in data set [2] and in [3] was “Active” in each case. In [1], the Activity entry is “Non-Toxic”. Also, the values for the IC50 in [4] and in data set [5] were 107 nM and 70.7 nM, respectively. Moreover, the inhibition entry in data set [4] and in data set [5] was “Dose-dependent effect” in each case.
In the case of `S=C(Sn1ccc2ccccc21)N(Cc1ccccc1)Cc1ccccc1`, the Activity entry in data set [1] is “Non-Toxic”.
The same measure, in the same setting: the value for `CN(C)C(=S)Sn1ccc2ccccc21` was “Non-Toxic”.
The same measure, in the same setting: the value for `S=C(Sn1ccc2ccccc21)N1CCCCC1` was “Non-Toxic”; that for `Cc1ccc2ccn(SC(=S)N(C)C)c2c1` was “Non-Toxic”; that for `CN(C)C(=S)Sn1ccc2cc(F)ccc21` was “Non-Toxic”.
On to `CCN(CC)C(=S)Sn1ccc2ccccc21`, for which the Activity result in data set [1] was “Non-Toxic”.
Same read-out and setting: the value for `CN(C)C(=S)Sn1ccc2cc(Br)ccc21` was “Non-Toxic”; that for `Cc1c(C)n(SC(=S)N(C)C)c2ccccc12` was “Non-Toxic”; that for `CCN(CC)C(=S)Sn1c(C)cc2ccccc21` was “Non-Toxic”.
On the same count and under the same terms, the value for `S=C(Sn1ccc2ccccc21)N1CCC(Cc2ccccc2)CC1` was “Non-Toxic”; that for `CN(C)C(=S)Sn1ccc2c(Br)cccc21` was “Non-Toxic”; that for `CC1CCCC(C)N1C(=S)Sn1ccc2ccccc21` (configuration not stated) was “Non-Toxic”.
Still for that read-out and setting: the value for `S=C(Sn1ccc2ccccc21)N1CCc2ccccc2C1` was “Non-Toxic”.
On to `CN(C)C(=S)Sn1ccc2cc(Cl)ccc21`, for which the Activity entry in data set [1] is “Non-Toxic”.
The same measure, in the same setting: the value for `Cc1ccc2c(c1)cc(C)n2SC(=S)N(C)C` was “Non-Toxic”; that for `CC1CCN(C(=S)Sn2ccc3ccccc32)CC1` was “Non-Toxic”; that for `COc1cccc2ccn(SC(=S)N(C)C)c12` was “Non-Toxic”.
On the same count and under the same terms, the value for `S=C(Sn1ccc2ccccc21)N1CCOCC1` was “Non-Toxic”.
On to `COc1ccc2c(ccn2SC(=S)N(C)C)c1`, for which the Activity result in data set [1] is given as “Non-Toxic”.
